Data: US10077261B2, “Imidazolin-5-one derivative useful as FASN inhibitors for the treatment of cancer” (Janssen Pharmaceutica NV, priority 2012, dated 2018)

Columns and labels:
[1] = biological target: T1, hFASN enzyme (full length) (Homo sapiens, UniProt P49327); experiment: Fatty Acid Synthase (FASN) inhibition scintillation proximity assay; type: biochemical; details: for inhibition at 10 µM: read-out: Human FASN % inhibition @ 10 μM, 10 μM test compound; for IC50: read-out: Human FASN pIC50 (converted)
T1 construct: 10 μL hFASN enzyme (full length, 300 ng, purified in house); made in house
Summary of the method: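 Purified full-length hFASN (300 ng) converts ^3H-acetyl-CoA plus malonyl-CoA to ^3H-palmitate in 100 mM KH2PO4 pH 7.5, 1 mM DTT; compounds tested at 0.01–30 μM. Product captured on streptavidin imaging beads and read by LEADseeker at 610 nm after ≥24 h; 4-parameter logistic fit versus controls.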

A2780 ovarian cells [2] = experiment: A2780 ovarian cell proliferation assay in lipid reduced medium, with palmitate (MTT); type: cell-based; details: Homo sapiens, A2780, 96 h; read-out: pIC50 A2780 Ovarian Cell, With Palmitate (converted)
Protocol: (§1) The biological assays described below correspond to comparative assays for ovarian cell proliferation. […] Compounds active in the absence of palmitate would not be expected to be active in the control.
(§2) 2500 cells were seeded in a 96-well clear well plate in 200 μL RPMI1640 with 10% Fetal Calf Serum (Hyclone), and incubated at 37° C., 5% CO2. Blanks were wells without cells. The next day the culture medium was aspirated and replaced by 160 μL culture medium with 10% Lipid-Reduced Serum (LRS, Hyclone). 20 μL test compound (at concentrations of 30 μM, 10 μM, 3 μM, 1 μM, 0.30 μM, 0.10 μM, 0.03 μM and 0.01 μM)/DMSO dilution followed by 20 μL palmitate-BSA solution were added to a final concentrations of 0.2% DMSO, 25 μM palmitate (Sigma, P0500, 10 mM stock solution in ethanol) 0.2% fatty-acid-free BSA, 0.25% ethanol. After 96 h incubation, an MTT assay was performed. The absorbance was measured at 544 nm on a SPECTRAMAX brand microplate reader (Molecular Devices).
A best fit curve was fitted by a minimum sum of squares method, plotting Controlmin versus test compound concentration.
(§3) Representative compounds of the present invention were tested according to the procedure as described in Biological Example 3 above, with results as listed in Table 8, below.

A2780 ovarian cells [3] = experiment: A2780 ovarian cell proliferation assay in lipid reduced medium, without palmitate (MTT); type: cell-based; details: Homo sapiens, A2780, 96 h; read-out: pIC50 A2780 Ovarian Cell, Without Palmitate (converted)
Protocol: as §1
as §2, with “ethanol-BSA” for “palmitate-BSA”, “DMSO,” for “DMSO, 25 μM palmitate (Sigma, P0500, 10 mM stock solution in ethanol)”, “incubation” for “incubation,”
where mLC and mHC were the means of the low control wells and high control wells on the plate, after manual exclusion of outliers. A plot of Controlmin versus test compound concentration was fitted to a 4-parameter logistic curve using a non-linear least squares regression method.
as §3

T1 sequence (P49327 whole entry): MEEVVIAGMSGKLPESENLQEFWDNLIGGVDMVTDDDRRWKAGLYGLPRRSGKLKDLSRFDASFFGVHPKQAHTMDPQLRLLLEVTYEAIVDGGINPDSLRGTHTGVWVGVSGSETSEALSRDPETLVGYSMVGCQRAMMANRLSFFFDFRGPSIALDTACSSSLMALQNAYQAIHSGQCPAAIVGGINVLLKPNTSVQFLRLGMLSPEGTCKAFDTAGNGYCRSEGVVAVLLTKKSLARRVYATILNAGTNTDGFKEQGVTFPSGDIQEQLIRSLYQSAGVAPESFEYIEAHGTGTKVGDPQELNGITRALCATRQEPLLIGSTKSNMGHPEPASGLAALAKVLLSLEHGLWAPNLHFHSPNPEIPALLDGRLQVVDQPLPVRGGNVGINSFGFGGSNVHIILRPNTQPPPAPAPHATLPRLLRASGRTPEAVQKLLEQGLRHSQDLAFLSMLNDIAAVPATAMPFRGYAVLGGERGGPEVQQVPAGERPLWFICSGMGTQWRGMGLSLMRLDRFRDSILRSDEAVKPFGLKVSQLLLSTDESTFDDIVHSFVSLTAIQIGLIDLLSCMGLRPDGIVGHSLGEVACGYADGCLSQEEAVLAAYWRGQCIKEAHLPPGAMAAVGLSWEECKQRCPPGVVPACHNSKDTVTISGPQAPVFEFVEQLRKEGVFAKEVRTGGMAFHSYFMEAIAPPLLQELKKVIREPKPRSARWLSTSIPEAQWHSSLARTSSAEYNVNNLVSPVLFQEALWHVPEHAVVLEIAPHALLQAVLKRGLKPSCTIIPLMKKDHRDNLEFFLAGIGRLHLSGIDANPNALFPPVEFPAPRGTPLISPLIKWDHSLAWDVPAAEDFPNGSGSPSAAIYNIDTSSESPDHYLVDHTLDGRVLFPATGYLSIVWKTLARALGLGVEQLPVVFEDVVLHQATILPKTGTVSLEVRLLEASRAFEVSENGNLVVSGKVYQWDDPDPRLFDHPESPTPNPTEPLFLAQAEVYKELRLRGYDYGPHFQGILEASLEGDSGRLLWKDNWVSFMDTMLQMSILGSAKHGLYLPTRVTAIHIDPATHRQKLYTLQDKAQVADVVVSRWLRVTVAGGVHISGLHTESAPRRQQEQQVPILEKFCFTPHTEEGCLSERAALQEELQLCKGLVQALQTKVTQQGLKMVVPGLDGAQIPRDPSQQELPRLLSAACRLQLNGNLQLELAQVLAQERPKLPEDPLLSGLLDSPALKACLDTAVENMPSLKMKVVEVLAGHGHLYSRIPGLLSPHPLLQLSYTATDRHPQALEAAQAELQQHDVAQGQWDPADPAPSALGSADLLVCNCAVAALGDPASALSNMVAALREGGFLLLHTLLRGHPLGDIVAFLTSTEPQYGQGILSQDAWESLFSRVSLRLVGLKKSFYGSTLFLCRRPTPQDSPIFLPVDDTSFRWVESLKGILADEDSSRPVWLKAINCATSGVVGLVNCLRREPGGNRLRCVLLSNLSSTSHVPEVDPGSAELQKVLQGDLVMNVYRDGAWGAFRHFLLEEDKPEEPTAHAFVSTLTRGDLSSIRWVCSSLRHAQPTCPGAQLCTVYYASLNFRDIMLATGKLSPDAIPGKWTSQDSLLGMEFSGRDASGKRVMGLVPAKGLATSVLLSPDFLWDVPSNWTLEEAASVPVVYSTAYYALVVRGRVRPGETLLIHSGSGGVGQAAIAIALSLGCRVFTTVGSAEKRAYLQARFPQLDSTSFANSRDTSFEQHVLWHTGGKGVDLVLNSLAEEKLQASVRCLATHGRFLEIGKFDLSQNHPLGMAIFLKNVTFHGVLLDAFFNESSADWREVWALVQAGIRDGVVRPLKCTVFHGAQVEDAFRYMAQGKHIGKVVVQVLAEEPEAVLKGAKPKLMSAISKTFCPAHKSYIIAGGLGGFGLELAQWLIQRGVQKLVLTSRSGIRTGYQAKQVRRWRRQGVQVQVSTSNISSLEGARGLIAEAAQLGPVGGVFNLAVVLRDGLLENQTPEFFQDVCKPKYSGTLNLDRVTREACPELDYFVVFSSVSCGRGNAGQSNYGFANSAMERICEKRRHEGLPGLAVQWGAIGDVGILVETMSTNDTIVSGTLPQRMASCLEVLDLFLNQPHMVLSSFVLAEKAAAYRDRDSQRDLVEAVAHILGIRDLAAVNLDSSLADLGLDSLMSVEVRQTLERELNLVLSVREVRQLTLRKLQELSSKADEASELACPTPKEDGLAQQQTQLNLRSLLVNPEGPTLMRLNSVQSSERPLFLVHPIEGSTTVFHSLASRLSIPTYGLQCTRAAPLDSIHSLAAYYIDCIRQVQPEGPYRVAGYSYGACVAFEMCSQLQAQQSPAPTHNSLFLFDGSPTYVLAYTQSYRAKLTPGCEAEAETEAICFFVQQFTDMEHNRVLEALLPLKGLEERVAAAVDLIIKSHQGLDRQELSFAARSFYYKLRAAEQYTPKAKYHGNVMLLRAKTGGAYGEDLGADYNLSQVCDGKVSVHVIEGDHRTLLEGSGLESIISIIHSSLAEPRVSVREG

Row | Compound | inhibition at 10 µM [1] [%] | IC50 [1] [µM] | IC50 (A2780 ovarian cells [2]) [µM] | IC50 (A2780 ovarian cells [3]) [µM]
1 | O=C(C1CC1)N1CC(CN2C(=O)C3(CC3)N=C2c2ccc(-c3ccc4c(cnn4C4COC4)c3)cc2)C1 [compound 788, 6-((1-(cyclopropanecarbonyl)azetidin-3-yl)methyl)-5-(4-(1-(oxetan-3-yl)-1H-indazol-5-yl)phenyl)-4,6-diazaspiro[2.4]hept-4-en-7-one] | 14 | > 10 | > 10 | > 10
2 | Cc1cc(-c2ccc3ccc(Br)cc3n2)ccc1C1=NC2(CC2)C(=O)N1CC1CN(C(=O)C2(C)CC2)C1 [compound 595, 5-[4-(7-Bromoquinolin-2-yl)-2-methylphenyl]-6-({1-[(1-methylcyclopropyl)carbonyl]azetidin-3-yl}methyl)-4,6-diazaspiro[2.4]hept-4-en-7-one] | 83 | 1.35 | 6.61 | 3.24
3 | O=C(C1CC1)N1CC(CN2C(=O)C3(CC3)N=C2c2ccc(-c3ccc4ccc(Cl)nc4c3)cc2)C1 [compound 540, 5-[4-(2-Chloroquinolin-7-yl)phenyl]-6-{[1-(cyclopropylcarbonyl)azetidin-3-yl]methyl}-4,6-diazaspiro[2.4]hept-4-en-7-one] | 64 | 5.01 | 9.33 | 4.47
4 | Cc1cc(-c2ccc(C3(C#N)CC3)cc2F)ccc1C1=NC2(CC2)C(=O)N1CC1CN(C(=O)C2(C)CC2)C1 [compound 593] | 56 | 7.08 | 9.55 | 6.76
5 | O=C(C1CC1)N1CC[C@@H](CN2C(=O)C3(CCNCC3)N=C2c2ccc(-c3ccc4occc4c3)cc2)C1 [compound 133, 2-[4-(1-Benzofuran-5-yl)phenyl]-3-{[(3R)-1-(cyclopropylcarbonyl)pyrrolidin-3-yl]methyl}-1,3,8-triazaspiro[4.5]dec-1-en-4-one] | 99.1 | 0.447 | > 10 | ~3.16

Results, then the compound that gave them:

Row | inhibition at 10 µM [1] [%] | IC50 [1] [µM] | IC50 (A2780 ovarian cells [2]) [µM] | IC50 (A2780 ovarian cells [3]) [µM] | Compound
6 | 76 | 2.24 | 6.61 | 1.45 | Cc1cc(-c2ccc3c(C)cc(Cl)nc3c2)ccc1C1=NC2(CC2)C(=O)N1CC1CN(C(=O)C2(C)CC2)C1 [compound 624, 5-[4-(2-Chloro-4-methylquinolin-7-yl)-2-methylphenyl]-6-({1-[(1-methylcyclopropyl)carbonyl]azetidin-3-yl}methyl)-4,6-diazaspiro[2.4]hept-4-en-7-one]
7 | 88 | 0.631 | > 10 | 3.16 | O=C(C1CC1)N1CC(CN2C(=O)C3(CC3)N=C2c2ccc(-c3ccc4c(Cl)ccnc4c3)cc2)C1 [compound 563, 5-[4-(4-Chloroquinolin-7-yl)phenyl]-6-{[1-(cyclopropylcarbonyl)azetidin-3-yl]methyl}-4,6-diazaspiro[2.4]hept-4-en-7-one]
8 | 80 | 1.74 | > 10 | 3.31 | Cc1cc(-c2ccc3c(Cl)nn(C)c3c2)ccc1C1=NC2(CC2)C(=O)N1CC1CN(C(=O)C2CC2)C1 [compound 590, 5-[4-(3-Chloro-1-methyl-1H-indazol-6-yl)-2-methylphenyl]-6-{[1-(cyclopropylcarbonyl)azetidin-3-yl]methyl}-4,6-diazaspiro[2.4]hept-4-en-7-one]
9 | 86 | 0.209 | 2.19 | 0.204 | Cc1cc2cc(-c3ccc(C4=NC5(CC5)C(=O)N4CC4CN(C(=O)C5CC5)C4)c(F)c3)ccc2n1C [compound 569, 6-{[1-(Cyclopropylcarbonyl)azetidin-3-yl]methyl}-5-[4-(1,2-dimethyl-1H-indol-5-yl)-2-fluorophenyl]-4,6-diazaspiro[2.4]hept-4-en-7-one]
